Molecules are shown by their SMILES. Active and inactive are the calls of the source. The rule behind the calls is not given here.

From PubChem BioAssay AID1259407 (Chemical Carcinogenesis Research Information System (CCRIS), 2018) come the findings set out here.

For the series, the system named is CCRIS mutagenicity, Ames/micronucleus/aberration tests. The experiment in a line: CCRIS mutagenicity studies.
The mark [1] stands for this setting: Test System: AMES SALMONELLA TYPHIMURIUM, Strain/Indicator: TA97, Metabolic Activation: NONE, Method: PREINCUBATION
The mark [2] stands for this setting: Test System: AMES SALMONELLA TYPHIMURIUM, Strain/Indicator: TA98, Metabolic Activation: NONE, Method: PREINCUBATION
[3] abbreviates: Test System: AMES SALMONELLA TYPHIMURIUM, Strain/Indicator: TA98, Metabolic Activation: NONE, Method: STANDARD PLATE.
[4] abbreviates: Test System: AMES SALMONELLA TYPHIMURIUM, Strain/Indicator: TA100, Metabolic Activation: NONE, Method: PREINCUBATION
[5] abbreviates: Test System: AMES SALMONELLA TYPHIMURIUM, Strain/Indicator: TA100, Metabolic Activation: NONE, Method: STANDARD PLATE.
[6] abbreviates: Test System: AMES SALMONELLA TYPHIMURIUM, Strain/Indicator: TA1535, Metabolic Activation: NONE, Method: PREINCUBATION

In the case of `Nc1ccccc1-c1ccccc1`, the mutagenic call runs as follows: (End Point: IN VITRO CHROMOSOMAL ABERRATIONS, Test System: CHO CELLS, Metabolic Activation: RAT, LIVER, S-9, AROCLOR 1254) “inactive; negative”; (End Point: IN VITRO CHROMOSOMAL ABERRATIONS, Test System: CHO-WBL CELLS, Metabolic Activation: RAT, LIVER, S-9, PHENOBARBITAL AND BETA-NAPHTHOFLAVONE) “active; positive (at 24 hr)”; (Test System: AMES SALMONELLA TYPHIMURIUM, Strain/Indicator: TA97, Metabolic Activation: HAMSTER, LIVER, S-9, AROCLOR 1254 (10%), Method: PREINCUBATION) “inactive; negative”; under setting [1], “inactive; negative”; (Test System: AMES SALMONELLA TYPHIMURIUM, Strain/Indicator: TA97, Metabolic Activation: RAT, LIVER, S-9, AROCLOR 1254 (10%), Method: PREINCUBATION) “inactive; negative”; (Test System: AMES SALMONELLA TYPHIMURIUM, Strain/Indicator: TA98, Metabolic Activation: HAMSTER, LIVER, S-9, AROCLOR 1254 (10%), Method: PREINCUBATION) “inactive; negative”. Further, the mutagenic call by setting is: under setting [2], “inactive; negative”; under setting [3], “inactive; negative”; (Test System: AMES SALMONELLA TYPHIMURIUM, Strain/Indicator: TA98, Metabolic Activation: RAT LIVER S-9, AROCLOR 1254, Method: PREINCUBATION) “inactive; negative”; (Test System: AMES SALMONELLA TYPHIMURIUM, Strain/Indicator: TA98, Metabolic Activation: RAT, LIVER, S-9, AROCLOR 1254 (4%), Method: STANDARD PLATE) “inactive; negative”; (Test System: AMES SALMONELLA TYPHIMURIUM, Strain/Indicator: TA98, Metabolic Activation: RAT, LIVER, S-9, AROCLOR 1254 (10%), Method: PREINCUBATION) “inactive; negative”; (Test System: AMES SALMONELLA TYPHIMURIUM, Strain/Indicator: TA100, Metabolic Activation: HAMSTER, LIVER, S-9, AROCLOR 1254 (10%), Method: PREINCUBATION) “active; positive”. Besides, the mutagenic call reads like this: under setting [4], “inactive; negative”; under setting [5], “inactive; negative”; (Test System: AMES SALMONELLA TYPHIMURIUM, Strain/Indicator: TA100, Metabolic Activation: RAT LIVER S-9, AROCLOR 1254, Method: PREINCUBATION) “inactive; negative”; (Test System: AMES SALMONELLA TYPHIMURIUM, Strain/Indicator: TA100, Metabolic Activation: RAT, LIVER, S-9, AROCLOR 1254 (10%), Method: PREINCUBATION) “active; positive”; (Test System: AMES SALMONELLA TYPHIMURIUM, Strain/Indicator: TA1535, Metabolic Activation: HAMSTER, LIVER, S-9, AROCLOR 1254 (10%), Method: PREINCUBATION) “inactive; negative”; under setting [6], “inactive; negative”. Moreover, the mutagenic call (Test System: AMES SALMONELLA TYPHIMURIUM, Strain/Indicator: TA1535, Metabolic Activation: RAT, LIVER, S-9, AROCLOR 1254 (10%), Method: PREINCUBATION) was “inactive; negative”.

As to `CCOC(=O)CC(SP(=O)(OC)OC)C(=O)OCC` (centres undefined), the mutagenic call (End Point: IN VITRO CHROMOSOMAL ABERRATIONS, Test System: CHO CELLS, Metabolic Activation: NONE) is “inactive; negative”; the mutagenic call (Test System: AMES SALMONELLA TYPHIMURIUM, Strain/Indicator: TA97, Metabolic Activation: HAMSTER, LIVER, S-9, AROCLOR 1254 (10 OR 30%), Method: PREINCUBATION) is “inactive; negative”; the mutagenic call under setting [1] is “inactive; negative”; the mutagenic call (Test System: AMES SALMONELLA TYPHIMURIUM, Strain/Indicator: TA97, Metabolic Activation: RAT, LIVER, S-9, AROCLOR 1254 (10 OR 30%), Method: PREINCUBATION) is “inactive; negative”; the mutagenic call (Test System: AMES SALMONELLA TYPHIMURIUM, Strain/Indicator: TA98, Metabolic Activation: HAMSTER, LIVER, S-9, AROCLOR 1254 (10 OR 30%), Method: PREINCUBATION) is “inactive; negative”; the mutagenic call under setting [2] is “inactive; negative”. Also, the mutagenic call is, setting by setting: under setting [3], “inactive; negative”; (Test System: AMES SALMONELLA TYPHIMURIUM, Strain/Indicator: TA98, Metabolic Activation: RAT, LIVER, S-9, AROCLOR 1254 (10 OR 30%), Method: PREINCUBATION) “inactive; negative”; (Test System: AMES SALMONELLA TYPHIMURIUM, Strain/Indicator: TA98, Metabolic Activation: RAT, LIVER, S-9, Method: STANDARD PLATE) “active; positive”; (Test System: AMES SALMONELLA TYPHIMURIUM, Strain/Indicator: TA100, Metabolic Activation: HAMSTER, LIVER, S-9, AROCLOR 1254 (10 OR 30%), Method: PREINCUBATION) “inactive; negative”; under setting [4], “inactive; negative”; under setting [5], “active; positive”. Besides, the mutagenic call was “inactive; negative” (Test System: AMES SALMONELLA TYPHIMURIUM, Strain/Indicator: TA100, Metabolic Activation: RAT, LIVER, S-9, AROCLOR 1254 (10 OR 30%), Method: PREINCUBATION); “inactive; negative” (Test System: AMES SALMONELLA TYPHIMURIUM, Strain/Indicator: TA100, Metabolic Activation: RAT, LIVER, S-9, Method: STANDARD PLATE); “inactive; negative” (Test System: AMES SALMONELLA TYPHIMURIUM, Strain/Indicator: TA1535, Metabolic Activation: HAMSTER, LIVER, S-9, AROCLOR 1254 (10 OR 30%), Method: PREINCUBATION); “inactive; negative” under setting [6]; “inactive; negative” (Test System: AMES SALMONELLA TYPHIMURIUM, Strain/Indicator: TA1535, Metabolic Activation: RAT, LIVER, S-9, AROCLOR 1254 (10 OR 30%), Method: PREINCUBATION).

On to `CC(=O)c1oc([N+](=O)[O-])c(-c2ccccc2)c1-c1ccccc1`, for which the mutagenic call is, setting by setting: (Test System: AMES SALMONELLA TYPHIMURIUM, Strain/Indicator: TA98(NR), Metabolic Activation: NONE, Method: STANDARD PLATE) “inactive; negative”; under setting [3], “active; positive”; (Test System: AMES SALMONELLA TYPHIMURIUM, Strain/Indicator: TA100(NR), Metabolic Activation: NONE, Method: STANDARD PLATE) “inactive; negative”; under setting [5], “active; positive”.

For the compound `Nc1nc2c(ncn2COC(CO)CO)c(=O)[nH]1`, the mutagenic call (End Point: IN VITRO CHROMOSOMAL ABERRATIONS, Test System: CHO CELLS (CHO-HSVTK), Metabolic Activation: NONE) was “active; positive (structural changes); concentration chosen also induced apoptosis”.

As to `O=[N+]([O-])c1cc(-c2ccccc2)cc([N+](=O)[O-])c1O`, under setting [2], the mutagenic call was “active; positive”.

As for `O=[N+]([O-])c1ccc2c(c1)nc(/C=N/OCc1ccccc1[N+](=O)[O-])n2Cc1ccccc1`, the mutagenic call reads like this: under setting [3], “active; positive”; (Test System: AMES SALMONELLA TYPHIMURIUM, Strain/Indicator: TA98, Metabolic Activation: RAT, LIVER, S-9, PHENOBARBITAL AND BETA-NAPHTHOFLAVONE, Method: STANDARD PLATE) “active; positive”; under setting [5], “active; positive”; (Test System: AMES SALMONELLA TYPHIMURIUM, Strain/Indicator: TA100, Metabolic Activation: RAT, LIVER, S-9, PHENOBARBITAL AND BETA-NAPHTHOFLAVONE, Method: STANDARD PLATE) “active; positive”.

Regarding `CCCCC(=O)Nc1snc2ccc(Cl)cc12`, the mutagenic call reads like this: under setting [5], “inactive; negative”; (Test System: AMES SALMONELLA TYPHIMURIUM, Strain/Indicator: TA100, Metabolic Activation: S-9, Method: STANDARD PLATE) “inactive; negative”; (Test System: AMES SALMONELLA TYPHIMURIUM, Strain/Indicator: TA1537, Metabolic Activation: NONE, Method: STANDARD PLATE) “inactive; negative”; (Test System: AMES SALMONELLA TYPHIMURIUM, Strain/Indicator: TA1537, Metabolic Activation: S-9, Method: STANDARD PLATE) “inactive; negative”.

For the compound `CC(C)(C)c1cc(/C=C/c2cc(C(C)(C)C)c(O)c(C(C)(C)C)c2)cc(C(C)(C)C)c1O`, the mutagenic call by setting is: under setting [2], “inactive; negative”; (Test System: AMES SALMONELLA TYPHIMURIUM, Strain/Indicator: TA98, Metabolic Activation: RAT, LIVER, S-9, Method: PREINCUBATION) “inactive; negative”; under setting [4], “inactive; negative”; (Test System: AMES SALMONELLA TYPHIMURIUM, Strain/Indicator: TA100, Metabolic Activation: RAT, LIVER, S-9, Method: PREINCUBATION) “inactive; negative”.
